Experimental findings from publication PMC8373216, “Development and Preclinical Evaluation of New Inhaled Lipoglycopeptides for the Treatment of Persistent Pulmonary Methicillin-Resistant Staphylococcus aureus Infections” (Antimicrobial Agents and Chemotherapy, 2021) are described below.

One assay concerns MSSA ATCC 29213. The assay is described as follows: In-house broth microdilution MIC screening. It counts as cell-based. To be noted: Staphylococcus aureus, read-out: MIC Value, MSSA ATCC 29213.
In assay [1] the test system is MRSA ATCC BAA 1556 (USA300). The assay is described as follows: In-house broth microdilution MIC screening. To be noted: for MIC: Staphylococcus aureus, read-out: MIC Value, MRSA ATCC BAA 1556. The assay is classed as cell-based, Staphylococcus aureus. For orientation: Dilution methods test growth across graded concentrations, often in twofold steps.
Setting [2] is: MRSA and MSSA isolates of Table 1.

Converted amounts (≈) assume the structure as drawn. Like-named read-outs stand apart in the source and are kept apart here.

Broadly, the MIC is the least concentration at which growth counts as inhibited. As to `CCCCCCCCOC(=O)CNC1(C)CC(OC2C(Oc3c4cc5cc3Oc3ccc(cc3Cl)C(O)C3NC(=O)C(NC(=O)C5NC(=O)C(CC(N)=O)NC(=O)C(NC(=O)C(CC(C)C)NC)C(O)c5ccc(c(Cl)c5)O4)c4ccc(O)c(c4)-c4c(O)cc(O)cc4C(C(=O)O)NC3=O)OC(CO)C(O)C2O)OC(C)C1O` (stereo not drawn) [RV124], the MIC with MSSA ATCC 29213 (broth microdilution) was 0.5 µg/mL (≈ 0.309 µM); in assay [1] (broth microdilution) it was 0.75 µg/mL (≈ 0.463 µM).
In the case of `CCCCCCCCCCOC(=O)CNC1(C)CC(OC2C(Oc3c4cc5cc3Oc3ccc(cc3Cl)C(O)C3NC(=O)C(NC(=O)C5NC(=O)C(CC(N)=O)NC(=O)C(NC(=O)C(CC(C)C)NC)C(O)c5ccc(c(Cl)c5)O4)c4ccc(O)c(c4)-c4c(O)cc(O)cc4C(C(=O)O)NC3=O)OC(CO)C(O)C2O)OC(C)C1O` (stereo not drawn) [RV55], the MIC (in the assay on MSSA ATCC 29213 (broth microdilution); in assay [1] (broth microdilution)) was 0.25 µg/mL (≈ 0.152 µM) throughout.
With `CCCCCCCCNC(=O)CNC1(C)CC(OC2C(Oc3c4cc5cc3Oc3ccc(cc3Cl)C(O)C3NC(=O)C(NC(=O)C5NC(=O)C(CC(N)=O)NC(=O)C(NC(=O)C(CC(C)C)NC)C(O)c5ccc(c(Cl)c5)O4)c4ccc(O)c(c4)-c4c(O)cc(O)cc4C(C(=O)O)NC3=O)OC(CO)C(O)C2O)OC(C)C1O` (stereo not drawn) [RV121], the MIC (with MSSA ATCC 29213 (broth microdilution); in assay [1] (broth microdilution)) was 0.25 µg/mL (≈ 0.154 µM) throughout.
With `CCCCCCCCCCCC(=O)OCCNC1(C)CC(OC2C(Oc3c4cc5cc3Oc3ccc(cc3Cl)C(O)C3NC(=O)C(NC(=O)C5NC(=O)C(CC(N)=O)NC(=O)C(NC(=O)C(CC(C)C)NC)C(O)c5ccc(c(Cl)c5)O4)c4ccc(O)c(c4)-c4c(O)cc(O)cc4C(C(=O)O)NC3=O)OC(CO)C(O)C2O)OC(C)C1O` (stereo not drawn) [RV65], the MIC in the assay on MSSA ATCC 29213 (broth microdilution) came out at 0.063 µg/mL (≈ 0.0376 µM); in assay [1] (broth microdilution), 0.094 µg/mL (≈ 0.0561 µM).
`CCCCCCCCCCCCCCCC(=O)OCCNC1(C)CC(OC2C(Oc3c4cc5cc3Oc3ccc(cc3Cl)C(O)C3NC(=O)C(NC(=O)C5NC(=O)C(CC(N)=O)NC(=O)C(NC(=O)C(CC(C)C)NC)C(O)c5ccc(c(Cl)c5)O4)c4ccc(O)c(c4)-c4c(O)cc(O)cc4C(C(=O)O)NC3=O)OC(CO)C(O)C2O)OC(C)C1O` (stereo not drawn) [RV89]: the MIC in the assay on MSSA ATCC 29213 (broth microdilution) is 0.5 µg/mL (≈ 0.289 µM); in assay [1] (broth microdilution), 1 µg/mL (≈ 0.577 µM).
On to `CCCCCCCCCCCCCCOC(=O)CNC1(C)CC(OC2C(Oc3c4cc5cc3Oc3ccc(cc3Cl)C(O)C3NC(=O)C(NC(=O)C5NC(=O)C(CC(N)=O)NC(=O)C(NC(=O)C(CC(C)C)NC)C(O)c5ccc(c(Cl)c5)O4)c4ccc(O)c(c4)-c4c(O)cc(O)cc4C(C(=O)O)NC3=O)OC(CO)C(O)C2O)OC(C)C1O` (stereo not drawn) [RV127], for which the MIC (in the assay on MSSA ATCC 29213 (broth microdilution); in assay [1] (broth microdilution)) was 4 µg/mL (≈ 2.35 µM) throughout.
Consider `CNC(CC(C)C)C(=O)NC1C(=O)NC(CC(N)=O)C(=O)NC2C(=O)NC3C(=O)NC(C(=O)NC(C(=O)O)c4cc(O)cc(O)c4-c4cc3ccc4O)C(O)c3ccc(c(Cl)c3)Oc3cc2cc(c3OC2OC(CO)C(O)C(O)C2OC2CC(C)(NCC(=O)O)C(O)C(C)O2)Oc2ccc(cc2Cl)C1O` (stereo not drawn) [RV101], for which the MIC (in the assay on MSSA ATCC 29213 (broth microdilution); in assay [1] (broth microdilution)) was greater than 128 µg/mL in each case.
In the case of `CCCCCCCCCCCCOC(=O)CNC1(C)CC(OC2C(Oc3c4cc5cc3Oc3ccc(cc3Cl)C(O)C3NC(=O)C(NC(=O)C5NC(=O)C(CC(N)=O)NC(=O)C(NC(=O)C(CC(C)C)NC)C(O)c5ccc(c(Cl)c5)O4)c4ccc(O)c(c4)-c4c(O)cc(O)cc4C(C(=O)O)NC3=O)OC(CO)C(O)C2O)OC(C)C1O` (stereo not drawn) [RV126], the MIC (with MSSA ATCC 29213 (broth microdilution); in assay [1] (broth microdilution)) was 2 µg/mL (≈ 1.19 µM) throughout.
For `CCCCCCCC(=O)OCCNC1(C)CC(OC2C(Oc3c4cc5cc3Oc3ccc(cc3Cl)C(O)C3NC(=O)C(NC(=O)C5NC(=O)C(CC(N)=O)NC(=O)C(NC(=O)C(CC(C)C)NC)C(O)c5ccc(c(Cl)c5)O4)c4ccc(O)c(c4)-c4c(O)cc(O)cc4C(C(=O)O)NC3=O)OC(CO)C(O)C2O)OC(C)C1O` (stereo not drawn) [RV90], the MIC (in the assay with MSSA ATCC 29213; in assay [1]) was 0.25 µg/mL (≈ 0.154 µM) in each case.
Turning to `CCCCCCCCCCCCCC(=O)NCCNC1(C)CC(OC2C(Oc3c4cc5cc3Oc3ccc(cc3Cl)C(O)C3NC(=O)C(NC(=O)C5NC(=O)C(CC(N)=O)NC(=O)C(NC(=O)C(CC(C)C)NC)C(O)c5ccc(c(Cl)c5)O4)c4ccc(O)c(c4)-c4c(O)cc(O)cc4C(C(=O)O)NC3=O)OC(CO)C(O)C2O)OC(C)C1O` (stereo not drawn) [RV92], the MIC was determined as 0.023 µg/mL (≈ 0.0135 µM) with MSSA ATCC 29213 (broth microdilution) and 0.031 µg/mL (≈ 0.0182 µM) in assay [1] (broth microdilution).
For the compound `CCCCCCCCCCCCCCCCOC(=O)CNC1(C)CC(OC2C(Oc3c4cc5cc3Oc3ccc(cc3Cl)C(O)C3NC(=O)C(NC(=O)C5NC(=O)C(CC(N)=O)NC(=O)C(NC(=O)C(CC(C)C)NC)C(O)c5ccc(c(Cl)c5)O4)c4ccc(O)c(c4)-c4c(O)cc(O)cc4C(C(=O)O)NC3=O)OC(CO)C(O)C2O)OC(C)C1O` (stereo not drawn) [RV128], the minimal inhibitory concentration (MIC) (in the assay on MSSA ATCC 29213 (broth microdilution); in assay [1] (broth microdilution)) was 1 µg/mL (≈ 0.577 µM) each time.
`CCCCCCCCCCCCNC(=O)CNC1(C)CC(OC2C(Oc3c4cc5cc3Oc3ccc(cc3Cl)C(O)C3NC(=O)C(NC(=O)C5NC(=O)C(CC(N)=O)NC(=O)C(NC(=O)C(CC(C)C)NC)C(O)c5ccc(c(Cl)c5)O4)c4ccc(O)c(c4)-c4c(O)cc(O)cc4C(C(=O)O)NC3=O)OC(CO)C(O)C2O)OC(C)C1O` (stereo not drawn) [RV95]: the MIC in the assay with MSSA ATCC 29213 (broth microdilution) worked out at 0.031 µg/mL (≈ 0.0185 µM). Also, in assay [1] (setting [2]), the “MIC potency, fold less potent than RV40” value is recorded as roughly 2 fold; the “MIC potency, fold more potent than telavancin” value is listed as roughly 2 fold; the “MIC potency, fold more potent than vancomycin” value is reported as “approximately 30 fold”. The MIC in assay [1] (broth microdilution) worked out at 0.031 µg/mL (≈ 0.0185 µM).
Turning to `CCCCCCCCCCCCCCCCNC(=O)CNC1(C)CC(OC2C(Oc3c4cc5cc3Oc3ccc(cc3Cl)C(O)C3NC(=O)C(NC(=O)C5NC(=O)C(CC(N)=O)NC(=O)C(NC(=O)C(CC(C)C)NC)C(O)c5ccc(c(Cl)c5)O4)c4ccc(O)c(c4)-c4c(O)cc(O)cc4C(C(=O)O)NC3=O)OC(CO)C(O)C2O)OC(C)C1O` (stereo not drawn) [RV131], the MIC (in the assay on MSSA ATCC 29213 (broth microdilution); in assay [1] (broth microdilution)) was 4 µg/mL (≈ 2.31 µM) in each case.
As for `CCCCCCCCCCCCCCCC(=O)NCCNC1(C)CC(OC2C(Oc3c4cc5cc3Oc3ccc(cc3Cl)C(O)C3NC(=O)C(NC(=O)C5NC(=O)C(CC(N)=O)NC(=O)C(NC(=O)C(CC(C)C)NC)C(O)c5ccc(c(Cl)c5)O4)c4ccc(O)c(c4)-c4c(O)cc(O)cc4C(C(=O)O)NC3=O)OC(CO)C(O)C2O)OC(C)C1O` (stereo not drawn) [RV91], the MIC in the assay on MSSA ATCC 29213 (broth microdilution) is 0.188 µg/mL (≈ 0.109 µM); in assay [1] (broth microdilution) it was 0.25 µg/mL (≈ 0.144 µM).
Turning to `CCCCCCCC(=O)NCCNC1(C)CC(OC2C(Oc3c4cc5cc3Oc3ccc(cc3Cl)C(O)C3NC(=O)C(NC(=O)C5NC(=O)C(CC(N)=O)NC(=O)C(NC(=O)C(CC(C)C)NC)C(O)c5ccc(c(Cl)c5)O4)c4ccc(O)c(c4)-c4c(O)cc(O)cc4C(C(=O)O)NC3=O)OC(CO)C(O)C2O)OC(C)C1O` (stereo not drawn) [RV93], the MIC (in the assay with MSSA ATCC 29213 (broth microdilution); in assay [1] (broth microdilution)) was 0.125 µg/mL (≈ 0.0772 µM) throughout.
With `CCCCCCCCCC(=O)OCCNC1(C)CC(OC2C(Oc3c4cc5cc3Oc3ccc(cc3Cl)C(O)C3NC(=O)C(NC(=O)C5NC(=O)C(CC(N)=O)NC(=O)C(NC(=O)C(CC(C)C)NC)C(O)c5ccc(c(Cl)c5)O4)c4ccc(O)c(c4)-c4c(O)cc(O)cc4C(C(=O)O)NC3=O)OC(CO)C(O)C2O)OC(C)C1O` (stereo not drawn) [RV54], the MIC in the assay on MSSA ATCC 29213 (broth microdilution) is 0.146 µg/mL (≈ 0.0886 µM); in assay [1] (broth microdilution) it was 0.167 µg/mL (≈ 0.101 µM).
On to `CCCCCCCCCC(=O)NCCNC1(C)CC(OC2C(Oc3c4cc5cc3Oc3ccc(cc3Cl)C(O)C3NC(=O)C(NC(=O)C5NC(=O)C(CC(N)=O)NC(=O)C(NC(=O)C(CC(C)C)NC)C(O)c5ccc(c(Cl)c5)O4)c4ccc(O)c(c4)-c4c(O)cc(O)cc4C(C(=O)O)NC3=O)OC(CO)C(O)C2O)OC(C)C1O` (stereo not drawn) [RV56], for which the MIC (in the assay with MSSA ATCC 29213 (broth microdilution); in assay [1] (broth microdilution)) was 0.063 µg/mL (≈ 0.0383 µM) throughout.
On to `CCCCCCCCCCCCCCNC(=O)CNC1(C)CC(OC2C(Oc3c4cc5cc3Oc3ccc(cc3Cl)C(O)C3NC(=O)C(NC(=O)C5NC(=O)C(CC(N)=O)NC(=O)C(NC(=O)C(CC(C)C)NC)C(O)c5ccc(c(Cl)c5)O4)c4ccc(O)c(c4)-c4c(O)cc(O)cc4C(C(=O)O)NC3=O)OC(CO)C(O)C2O)OC(C)C1O` (stereo not drawn) [RV130], for which the figures for the MIC (in the assay on MSSA ATCC 29213 (broth microdilution); in assay [1] (broth microdilution)) were 0.125 µg/mL (≈ 0.0734 µM) and 0.25 µg/mL (≈ 0.147 µM), respectively.
